Experimental data as given in paper PMC8617031, “Development of a BCL-xL and BCL-2 dual degrader with improved anti-leukemic activity,” (Nature Communications, 2021).
“And” between values parts separate entries of the source, which are not always exact repeats. Equal values may be shown once. Read-outs that look alike come from different tables or passages of the source.

Columns and labels:
His-tagged BCL-xL = molecular target: T1, His-tagged BCL-xL (Homo sapiens, UniProt Q07817); experiment: AlphaScreen competitive binary binding, BCL-xL (biotin-BAD peptide); settings: BCL-xL, second value (line without label below Rep-1, apparently Rep-2)
T1 construct: purchased Sigma-Aldrich SRP0187
T1 sequence (Q07817 whole entry): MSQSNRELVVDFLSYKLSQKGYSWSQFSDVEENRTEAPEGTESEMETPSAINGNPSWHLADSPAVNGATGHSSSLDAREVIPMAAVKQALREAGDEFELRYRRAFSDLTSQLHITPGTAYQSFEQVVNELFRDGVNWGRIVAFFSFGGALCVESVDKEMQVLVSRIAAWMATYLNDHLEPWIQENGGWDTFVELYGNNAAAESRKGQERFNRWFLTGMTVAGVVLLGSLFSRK
Protocol: (§1) The reagents were diluted in a buffer containing 250 mM HEPES pH 7.5, 1 M NaCl, 1% BSA, and 0.05% Tween-80. His-tagged BCL-xL (0.5 nM, Cat. No. SRP0187, Sigma-Aldrich) or BCL-2 (1 nM, Cat. No. SRP0186, Sigma-Aldrich) were incubated with serial diluted 753a or 753b and 2 nM biotin-tagged BAD (biotin-[…] amino-terminal, AnaSpec, for BCL-xL) or 10 nM BIM peptides (biotin-[…] N-terminal, AnaSpec, for BCL-2) to a final volume of 40 µl in a 96-well PCR plate. […] After incubation for 2 h, 5 µl 6× His-acceptor beads (Cat. No. AL128M, PerkinElmer) were added to each well at 20 µg/ml final concentration and incubated for 1 h. Then 5 µl streptavidin-donor beads were added (Cat. No. 6760002, PerkinElmer) to each well at 20 µg/ml final concentration and incubated for 45 min. At the end of the incubation period, 17 µl of each sample was transferred in adjacent wells of 384-well proxy plate (Cat. No. 6008280, PerkinElmer). The plate was scanned using the Alpha program on Biotek’s Synergy Neo2 multimode plate reader. The inhibition constant (Ki) was calculated using the non-linear regression, one site, competitive binding, Fit Ki function on GraphPad Prism 9 software, based on experimentally determined dissociation constant (Kd) for each protein–peptide pair.

293T cells = experiment: Viability (MTS) of 293T cells; type: cell-based, human; settings: for 293T cell viability, MTS absorbance 490 as percent of control, mean of three wells, left block of Plate 29: mean of 3 wells, Plate 29 normalised with blank 0.332667 and control 0.923167 of Plate 30; for 293T cell viability, MTS absorbance 490 as percent of untreated control, single replicate well: normalised to own plate
Protocol: Suspension cells were treated 30 min after seeding, whereas adherent cells were allowed to adhere overnight and were then treated. Compound treatments were prepared in complete cell culture medium and 100 µl of 2× treatment-containing medium were added to each well. Complete cell culture medium without treatment was added in control wells, and wells containing medium without cells served as background. The outer wells of the 96-well plate were not used for treatment and were filled with 250 µl of PBS to reduce evaporation of medium from inner wells. Each compound and/or combination was tested at nine different concentrations with three replicates. The cell viability was measured after 72 h by tetrazolium-based MTS assay. MTS reagent (2 mg ml^–1 stock; cat. no. G1111, Promega) was freshly supplemented with phenazine methosulfate (PMS, 0.92 mg ml^–1 stock, cat. no. P9625, Sigma-Aldrich) in 20:1 ratio, and 20 µl of this mixture was added to each control and treatment well. The cells were incubated for 4 h at 37 °C and 5% CO2, and then the absorbance was recorded at 490 nm using Biotek’s Synergy Neo2 multimode plate reader (Biotek). The average absorbance value of background wells was subtracted from absorbance value of each control and treatment well, and percent cell viability ((At/A0) × 100)) was determined in each treatment well, where At is the absorbance value of the treatment well and A0 is the average absorbance value of control wells after background subtraction. The data were expressed as average percentage cell viability and fitted in non-linear regression curves using GraphPad Prism 7 (GraphPad Software, La Jolla, CA, USA).

His-tagged BCL-2 = molecular target: T2, His-tagged BCL-2 (Homo sapiens, UniProt P10415); experiment: AlphaScreen competitive binary binding, BCL-2 (biotin-BIM peptide); settings: for Alpha signal normalised to Maximum/Minimum (inhibition): in % (unit assumed)
T2 construct: purchased Sigma-Aldrich SRP0186
T2 sequence (P10415 whole entry): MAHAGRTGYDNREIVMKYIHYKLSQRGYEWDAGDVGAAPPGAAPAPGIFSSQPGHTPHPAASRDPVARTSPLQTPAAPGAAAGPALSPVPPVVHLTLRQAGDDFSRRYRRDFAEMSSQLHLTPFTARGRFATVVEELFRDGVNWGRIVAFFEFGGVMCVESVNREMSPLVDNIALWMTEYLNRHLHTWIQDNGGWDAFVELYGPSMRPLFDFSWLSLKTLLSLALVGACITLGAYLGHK
Protocol: as §1

For `Cc1ncsc1-c1ccc([C@H](C)NC(=O)[C@@H]2C[C@@H](O)CN2C(=O)[C@@H](NC(=O)CCCCCC(=O)N2CCN(CC[C@H](CSc3ccccc3)Nc3ccc(S(=O)(=O)NC(=O)c4ccc(N5CCN(CC6=C(c7ccc(Cl)cc7)CCC(C)(C)C6)CC5)cc4)cc3S(=O)(=O)C(F)(F)F)CC2)C(C)(C)C)cc1` [DT2216], the Ki (His-tagged BCL-xL) was 2.53 nM, the “293T cell viability, MTS absorbance 490 as percent of control, mean of three wells, left block of Plate 29” value (293T cells; 0.00137174 uM) was 100.343 and the “293T cell viability, MTS absorbance 490 as percent of control, single replicate well, left block of Plate 29” value (293T cells; 0.00137174 uM, Plate 29 normalised with blank 0.332667 and control 0.923167 of Plate 30, 0.00137174 µM) was 99.4764 and 95.6851. For the same compound, the “293T cell viability, MTS absorbance 490 as percent of untreated control, single replicate well” value (293T cells; 0.00137174 uM) was 104.404 and 98.1429 and 94.4287, the “293T cell viability, MTS absorbance 490 as percent of control, mean of three wells, left block of Plate 29” value (293T cells; 0.00411523 uM) was 98.6099 and the “293T cell viability, MTS absorbance 490 as percent of control, single replicate well, left block of Plate 29” value (293T cells; 0.00411523 uM, Plate 29 normalised with blank 0.332667 and control 0.923167 of Plate 30, 0.00411523 µM) was 96.0101 and 96.1184. The “293T cell viability, MTS absorbance 490 as percent of untreated control, single replicate well” value (293T cells; 0.00411523 uM) was 102.282 and 94.7471 and 94.8532, the “293T cell viability, MTS absorbance 490 as percent of control, mean of three wells, left block of Plate 29” value (293T cells; 0.037037 uM) was 101.101 and the “293T cell viability, MTS absorbance 490 as percent of control, single replicate well, left block of Plate 29” value (293T cells; 0.037037 uM, Plate 29 normalised with blank 0.332667 and control 0.923167 of Plate 30, 0.037037 µM) was 93.0854 and 104.134. For the same compound, the “293T cell viability, MTS absorbance 490 as percent of untreated control, single replicate well” value (293T cells; 0.037037 uM) was 91.8819 and 102.706, the “293T cell viability, MTS absorbance 490 as percent of control, mean of three wells, left block of Plate 29” value (293T cells; 0.111111 uM) was 100.235 and the “293T cell viability, MTS absorbance 490 as percent of control, single replicate well, left block of Plate 29” value (293T cells; 0.111111 uM, Plate 29 normalised with blank 0.332667 and control 0.923167 of Plate 30, 0.111111 µM) was 95.1435 and 95.2519. The “293T cell viability, MTS absorbance 490 as percent of untreated control, single replicate well” value (293T cells; 0.111111 uM) was 93.8981 and 94.0042, the “293T cell viability, MTS absorbance 490 as percent of control, mean of three wells, left block of Plate 29” value (293T cells; 0.333333 uM) was 99.5125 and the “293T cell viability, MTS absorbance 490 as percent of control, single replicate well, left block of Plate 29” value (293T cells; 0.333333 uM, Plate 29 normalised with blank 0.332667 and control 0.923167 of Plate 30, 0.333333 µM) was 112.042 and 98.7182 and 87.7776. For the same compound, the “293T cell viability, MTS absorbance 490 as percent of untreated control, single replicate well” value (293T cells; 0.333333 uM) was 110.453 and 97.4001 and 86.682, the “293T cell viability, MTS absorbance 490 as percent of control, mean of three wells, left block of Plate 29” value (293T cells; 1 uM) was 99.007 and the “293T cell viability, MTS absorbance 490 as percent of control, single replicate well, left block of Plate 29” value (293T cells; 1 uM, Plate 29 normalised with blank 0.332667 and control 0.923167 of Plate 30, 1 µM) was 110.742 and 102.834 and 83.4447. For the same compound, the “293T cell viability, MTS absorbance 490 as percent of untreated control, single replicate well” value (293T cells; 1 uM) was 109.179 and 101.433 and 82.4372, the “293T cell viability, MTS absorbance 490 as percent of control, mean of three wells, left block of Plate 29” value (293T cells; 3 uM) was 87.4526 and the “293T cell viability, MTS absorbance 490 as percent of control, single replicate well, left block of Plate 29” value (293T cells; 3 uM, Plate 29 normalised with blank 0.332667 and control 0.923167 of Plate 30, 3 µM) was 93.7353 and 78.0285. For the same compound, the “293T cell viability, MTS absorbance 490 as percent of untreated control, single replicate well” value (293T cells; 3 uM) was 92.5186 and 77.1312, the “Alpha signal normalised to Maximum/Minimum (inhibition)” value (His-tagged BCL-2; BCL-2 Rep-1, 0.000305176 uM, 0.000305176 µM) was 11.9513 and the inhibition at 0.000305176 µM (His-tagged BCL-2; BCL-2 Rep-1, 0.000305176 uM, read-out: Alpha signal normalised to Maximum/Minimum (inhibition)) was 15.4%. For the same compound, the “Alpha signal normalised to Maximum/Minimum (inhibition)” value (His-tagged BCL-2; BCL-2 Rep-1, 0.00488281 uM, 0.00488281 µM) was 42.8592, the inhibition at 0.00488281 µM (His-tagged BCL-2; BCL-2 Rep-1, 0.00488281 uM, read-out: Alpha signal normalised to Maximum/Minimum (inhibition)) was 43% and the “Alpha signal normalised to Maximum/Minimum (inhibition)” value (His-tagged BCL-2; BCL-2 Rep-1, 0.0195312 uM, 0.0195312 µM) was 72.1054. The inhibition at 0.0195312 µM (His-tagged BCL-2; BCL-2 Rep-1, 0.0195312 uM, read-out: Alpha signal normalised to Maximum/Minimum (inhibition)) was 69.3%, the “Alpha signal normalised to Maximum/Minimum (inhibition)” value (His-tagged BCL-2; BCL-2 Rep-1, 0.078125 uM, 0.078125 µM) was 96.9363 and the inhibition at 0.078125 µM (His-tagged BCL-2; BCL-2 Rep-1, 0.078125 uM, read-out: Alpha signal normalised to Maximum/Minimum (inhibition)) was 96.6%. The “Alpha signal normalised to Maximum/Minimum (inhibition)” value (His-tagged BCL-2; BCL-2 Rep-1, 0.3125 uM, 0.3125 µM) was 99.419, the inhibition at 0.3125 µM (His-tagged BCL-2; BCL-2 Rep-1, 0.3125 uM, read-out: Alpha signal normalised to Maximum/Minimum (inhibition)) was 100% and the “Alpha signal normalised to Maximum/Minimum (inhibition)” value (His-tagged BCL-2; BCL-2 Rep-1, 1.25 uM, 1.25 µM) was 99.6178. For the same compound, the inhibition at 1.25 µM (His-tagged BCL-2; BCL-2 Rep-1, 1.25 uM, read-out: Alpha signal normalised to Maximum/Minimum (inhibition)) was 99.6%, the “Alpha signal normalised to Maximum/Minimum (inhibition)” value (His-tagged BCL-2; BCL-2 Rep-1, 5 uM, 5 µM) was 99.391 and the inhibition at 5 µM (His-tagged BCL-2; BCL-2 Rep-1, 5 uM, read-out: Alpha signal normalised to Maximum/Minimum (inhibition)) was 100%. For the same compound, the “Alpha signal (raw counts)” value (His-tagged BCL-2; BCL-2 Rep-2, 0.00488281 uM) was 457290 and 444842, the “Alpha signal normalised to Maximum/Minimum (inhibition)” value (His-tagged BCL-2; BCL-2 Rep-2, 0.0195312 uM, 0.0195312 µM) was 73.927 and the inhibition at 0.0195312 µM (His-tagged BCL-2; BCL-2 Rep-2, 0.0195312 uM, read-out: Alpha signal normalised to Maximum/Minimum (inhibition)) was 72.6%. The “Alpha signal normalised to Maximum/Minimum (inhibition)” value (His-tagged BCL-2; BCL-2 Rep-2, 0.078125 uM, 0.078125 µM) was 98.4863, the inhibition at 0.078125 µM (His-tagged BCL-2; BCL-2 Rep-2, 0.078125 uM, read-out: Alpha signal normalised to Maximum/Minimum (inhibition)) was 98.1% and the “Alpha signal normalised to Maximum/Minimum (inhibition)” value (His-tagged BCL-2; BCL-2 Rep-2, 0.3125 uM, 0.3125 µM) was 98.9063. For the same compound, the inhibition at 0.3125 µM (His-tagged BCL-2; BCL-2 Rep-2, 0.3125 uM, read-out: Alpha signal normalised to Maximum/Minimum (inhibition)) was 98.5%, the “Alpha signal normalised to Maximum/Minimum (inhibition)” value (His-tagged BCL-2; BCL-2 Rep-2, 1.25 uM, 1.25 µM) was 100.524 and the inhibition at 1.25 µM (His-tagged BCL-2; BCL-2 Rep-2, 1.25 uM, read-out: Alpha signal normalised to Maximum/Minimum (inhibition)) was 101%. For the same compound, the “Alpha signal normalised to Maximum/Minimum (inhibition)” value (His-tagged BCL-2; BCL-2 Rep-2, 5 uM, 5 µM) was 100.141, the inhibition at 5 µM (His-tagged BCL-2; BCL-2 Rep-2, 5 uM, read-out: Alpha signal normalised to Maximum/Minimum (inhibition)) was 99.9% and the “Alpha signal (raw counts)” value (His-tagged BCL-2; BCL-2 Rep-2, plate row B, 5 uM) was 15606 and 13933. For the same compound, the “Alpha signal (raw counts)” value (His-tagged BCL-2; BCL-2 Rep-2, plate row C, 1.25 uM) was 9913 and 10759, the “Alpha signal (raw counts)” value (His-tagged BCL-2; BCL-2 Rep-2, plate row D, 0.3125 uM) was 27814 and 24179 and the “Alpha signal (raw counts)” value (His-tagged BCL-2; BCL-2 Rep-2, plate row E, 0.078125 uM) was 30701 and 27663. The “Alpha signal (raw counts)” value (His-tagged BCL-2; BCL-2 Rep-2, plate row F, 0.0195312 uM) was 242422 and 231401, the “Alpha signal (raw counts)” value (His-tagged BCL-2; BCL-2 Rep-2, plate row H, 0.0012207 uM) was 765240 and 763074 and the “Alpha signal (raw counts)” value (His-tagged BCL-2; BCL-2 Rep-2, plate row I, 0.000305176 uM) was 762866 and 759346. The “Alpha signal (raw counts)” value (His-tagged BCL-2; BCL-2 Rep-2, plate row J, 7.62939e-5 uM) was 726537 and 792609 and the “Alpha signal (raw counts)” value (His-tagged BCL-2; BCL-2 Rep-2, plate row K, 1.90735e-5 uM) was 756626 and 814053.
